In doi:10.1101/2025.03.03.641193, “Trihydroxybenzaldoximes are redox cycling inhibitors of ThDP-dependent DXP synthase” (bioRxiv, 2025):
Where two headings read alike, the source gives them in different places.

Experiments:
EcDXPS [1] = target: T1, EcDXPS (Escherichia coli, UniProt P77488); experiment: DXPS-IspC coupled assay, aerobic, WT EcDXPS; assay type: biochemical, E. coli
T1 construct: made in house
Procedure: (§1) Inhibitory activity of compounds against DXPS were monitored via a continuous spectrophotometric coupled assay with DXPS and IspC as previously described.[41],[42] Briefly, Reaction mixtures containing HEPES (100 mM, pH 8.0), MgCl2 (2 mM), NaCl (5 mM), ThDP (1 mM), BSA (1 mg/mL), DXPS (125–500 nM), IspC (1.7 μM), NADPH (160 μM), DMSO (5%, v/v), and inhibitor (0–200 μM) were preincubated at 25 °C (or chamber temperature 25–30 °C) for 5 min. Enzymatic reactions were initiated via the addition of 20 μL of a 10x substrate mix for a final well volume of 200 μL. Reactions were performed in triplicate unless otherwise noted. See the following sections for details and modifications.
When varying pyruvate (0–500 μM), GAP was maintained at 50 μM (3 mM for R478A). When varying GAP (0–500 μM), pyruvate was maintained at 500 μM. The following [DXPS] were used when varying 1: WT EcDXPS, R478A, H431A, D427A (200 nM), R99A (500 nM), WT DrDXPS, WT PaDXPS (150 nM). […] Reactions were incubated and initiated as described above. Immediately following initiation, NADPH depletion was monitored at 340 nm at 25 °C for 7–10 min with a 14–20 second time interval. Initial velocities of DXP formation were determined from the linear portion of the NADPH decay. […] Initial velocities were plotted vs. substrate concentration, and the data were fit to equation 1 (mixed model), 2 (competitive), or 3 (uncompetitive) based on the calculated α value and goodness of fit in GraphPad Prism. Reported standard errors of the mean for Kis are calculated from three replicates.

H431A DXPS = target: T2, H431A DXPS (Escherichia coli, UniProt P77488, H431A); experiment: DXPS-IspC coupled assay, H431A variant; assay type: biochemical, E. coli
T2 construct: made in house
Procedure: (§2) To determine the role of active site network residues in the activity of oximes, inhibitory activity of 1 was assessed against EcD427A, EcH431A, and EcR99A by the DXPS-IspC coupled assay[41],[42] (Fig 4B, S3, Table S1). Ki determination was performed by varying [pyruvate] in order to assess the impact of residue substitutions on the uncompetitive mode of inhibition. […] (8.7 ± 1.2 μM, Fig S3, Table S1).
as §1
When varying pyruvate (0–500 μM), GAP was maintained at 50 μM (3 mM for R478A). When varying GAP (0–500 μM), pyruvate was maintained at 500 μM. The following [DXPS] were used when varying 1: WT EcDXPS, R478A, H431A, D427A (200 nM), R99A (500 nM), WT DrDXPS, WT PaDXPS (150 nM). Analogs 3 and 4 were tested using WT EcDXPS (150 nM). Reactions were incubated and initiated as described above. Immediately following initiation, NADPH depletion was monitored at 340 nm at 25 °C for 7–10 min with a 14–20 second time interval. Initial velocities of DXP formation were determined from the linear portion of the NADPH decay. Initial velocities were arithmetically corrected for background for compound 4. Initial velocities were plotted vs. substrate concentration, and the data were fit to equation 1 (mixed model), 2 (competitive), or 3 (uncompetitive) based on the calculated α value and goodness of fit in GraphPad Prism. Reported standard errors of the mean for Kis are calculated from three replicates.

D427A DXPS = target: T3, D427A DXPS (Escherichia coli, UniProt P77488, D427A); experiment: DXPS-IspC coupled assay, D427A variant; assay type: biochemical, E. coli
T3 construct: made in house
Procedure: as §2
Inhibitory activity of compounds against DXPS were monitored via a continuous spectrophotometric coupled assay with DXPS and IspC as previously described.[41],[42] […]
When varying pyruvate (0–500 μM), GAP was maintained at 50 μM (3 mM for R478A). […] Immediately following initiation, NADPH depletion was monitored at 340 nm at 25 °C for 7–10 min with a 14–20 second time interval. Initial velocities of DXP formation were determined from the linear portion of the NADPH decay. […] Initial velocities were plotted vs. substrate concentration, and the data were fit to equation 1 (mixed model), 2 (competitive), or 3 (uncompetitive) based on the calculated α value and goodness of fit in GraphPad Prism. Reported standard errors of the mean for Kis are calculated from three replicates.

EcDXPS [2] = target: T1, EcDXPS; experiment: Inhibition in the presence of CAT or ascorbate; assay type: biochemical, E. coli
Procedure: Given that CAT prevents nonenzymatic oxidative decarboxylation of pyruvate (Fig S8, S12), but influences the redox state of 1, we evaluated the inhibitory activity of 1 in the presence of CAT (Fig 6). […] In this experiment, 1 was incubated at 25 °C for 5 min in the presence of DXPS, IspC, and either CAT or ascorbate prior to initiation by addition of pyruvate and D-GAP. […] In the presence of ascorbate, 1 is primarily in the reduced form according to NMR (Fig S10).
Reaction solutions were prepared containing EcDXPS (150 nM). Solutions contained either DXPS alone or were supplemented with CAT (0.25 mg/mL) or ascorbate (5 mM). Reaction mixtures were incubated with either water or 1 (100 μM) for 5 min at 25 °C. Reactions were initiated with a mixture of pyruvate (110 μM) and GAP (60 μM), or water for background controls. Immediately following initiation, NADPH depletion was monitored at 340 nm at 25 °C for 7.5 min with a 14 second time interval. Initial velocities of DXP formation were measured as described above and arithmetically corrected for background rates and normalized to the DXPS only control reaction for comparison. Reactions were performed in triplicate, and % inhibition was determined arithmetically from initial velocities. Reported standard errors of the mean for Kis are calculated from three replicates.

[3] = target: T4, pyruvate decarboxylase (PDC) (Saccharomyces cerevisiae, UniProt P06169); experiment: Inhibition of PDC (ADH coupled assay); assay type: biochemical, S. cerevisiae
T4 construct: purchased Sigma Aldrich P9474; host or cells: baker's yeast
Procedure: Reaction conditions were optimized from a previously reported assay.[38] Briefly, reaction mixtures containing MES (100 mM, pH 6.2), MgCl2 (2 mM), ThDP (5 mM), PDC (0.06 U/mL), ADH (16 U/mL), NADH (170 μM), and 1 (0 or 200 μM) were preincubated at 25 °C for 5 min. Enzymatic reactions were initiated via the addition of 20 μL of 10x pyruvate (final 1mM), or water for background controls, for a final well volume of 200 μL. Immediately following initiation, NADH depletion was monitored at 340 nm at 25 °C for 7 min with a 14 second time interval. Initial velocities of acetaldehyde formation were measured and arithmetically corrected for background rates. Standard errors of reported % inhibition values were determined from 3 replicates. pH controls were conducted with phosphate buffer (pH 7 and 8); background subtraction was not performed on these samples. Reported standard errors of the mean for Kis are calculated from three replicates.

ON=Cc1cc(O)c(O)cc1O [compound 1, 2,4,5-trihydroxybenzaldoxime]
%Inhibition at 200 μM 1 (EcDXPS [1]; WT DXPS, HEPES pH 8, 200 μM): ~ 79%
MOI varying D-GAP (EcDXPS [1]; WT EcDXPS, aerobic): competitive
MOI varying pyruvate (EcDXPS [1]; WT EcDXPS, aerobic): uncompetitive
inhibition at 200 µM (EcDXPS [1]; pH 8, read-out: %Inhibition at 200 μM 1, WT DXPS, HEPES pH 8, 200 μM): 79.2 ± 0.2%
Ki (H431A DXPS): 1.1 ± 0.1 µM
MOI varying pyruvate (H431A DXPS; EcH431A): uncompetitive
fold lower Ki relative to WT (H431A DXPS; H431A, vary pyruvate): ~ 4 fold
Ki (D427A DXPS): 4.8 ± 0.2 µM
MOI varying pyruvate (D427A DXPS; EcD427A): uncompetitive
inhibition at 100 µM (EcDXPS [2]; read-out: %Inhibition at 100 μM 1, Ascorbate 5 mM, aerobic, 100 μM): 23%
inhibition at 100 µM (EcDXPS [2]; read-out: %Inhibition at 100 μM 1, CAT 0.25 mg/mL, aerobic, 100 μM): 80%
inhibition at 100 µM (EcDXPS [2]; read-out: %Inhibition at 100 μM 1, Control (DXPS alone), aerobic, 100 μM): 80 ± 0.5%
Inhibition of PDC at pH 7 or 8 ([3]; 200 μM, phosphate buffer pH 7 and 8): not observed
%Inhibition at 200 μM 1 ([3]; PDC, MES pH 6.2, 200 μM): ~ 14%
inhibition at 200 µM ([3]; pH 6.2, PDC, MES pH 6.2, 200 μM, read-out: %Inhibition at 200 μM 1): 14.2 ± 2.3%
